Assays:
[1] = system: arthritis mice (AIA model); assay: In vivo anti-inflammatory activity, AIA arthritis model
Experimental: Male Lewis Rates of 8-10 weeks old were fed with fixed amount of foods and free water at 20±2° C., under light in the 12-hour light and 12-hour darkness cycle and with the humidity of 45-70%. All mice were provided adjusted living for three days before they were used in test. 56 of such mice were divided into 7 groups with 8 mice in each group. One group was a control group and received only 1% CMCNa solution; one group was a model group and also received only 1% CMCNa solution; one group was a positive group and received Celecoxib at 18 mg/kg, and the other four groups received solutions of tested compound at the 1 mg/kg, 3 mg/kg, 10 mg/kg and […] dosages respectively.
1% CMC-Na was prepared with 1.00277 g of CMC-Na in 100 mL distilled water, heated with a 60° C. water bath until CMC-Na fully dissolved.
18 mg/kg Celecoxib capsule: 18.09 mg Celecoxib was placed into a grinder into which 10 mL 1% CMC-Na solution was added slowly. The mixture was ground until Celecoxib fully dissolved.
10 mg/kg C-003 solution: 10.08 mg of a tested compound (4-(1-{[2-Methyl-4-(4-trifluoromethyl-benzyl)-4H-thieno[3,2-b]pyrrole-3-carbonyl]-amino}-cyclopropyl)-benzoic acid diethanolamino salt, which is referred to hereinafter as INV-1120 diethanolamino salt) was added into a grinder, into which 10 mL 1% CMC-Na solution was slowly added until INV-1120 diethanolamino salt fully dissolved.
30 mg/kg INV-1120 solution: 30.3 mg of INV-1120 diethanolamino salt was added into a grinder, into which 10 mL 1% CMC-Na solution was slowly added until INV-1120 diethanolamino salt fully dissolved.
1 mg/kg INV-1120 was prepared by mixing 1.0 mL of 10 mg/kg INV-1120 diethanolamino salt solution with 9 mL 1% CMC-Na.
3 mg/kg INV-1120 was prepared by mixing 1.0 mL of 30 mg/kg INV-1120 diethanolamino salt solution with 9 mL 1% CMC-Na.
After the mice were subject to Anesthesia, they were cleaned with medical alcohol at their right feet. The mice in the control group were administered with 50 uL PBS, and the mice of the other groups were treated at the right feet with 50 uL CDA solution. One day before the establishment of the model, the basic size (volume) of each mice was measured, the date of the model establishment was D1, test compound was administered at 1 mL/100 g to the stomach starting on D13 daily for 12 days (ending on D24).
The mice were examined and photos were taken every three days for their water intakes, food intakes, and weights; every four days for their abilities to withstand weight at their rear feet; every three days for the swelling volumes and swelling thickness and temperatures of their feet, as well as their behaviors.

Lewis lung carcinoma = assay: In vivo pharmacodynamic test on growth of LLC (Lewis Lung Cancer); parameters: species or system mice; conditions: 90 mg/kg/day, after 9 days of treatment, p<0.01 vs control
Experimental: LLC (1×10^6 cells) were injected subcutaneously into the mid-dorsum of 6-week-old male C57BL/6 mice (The Jackson Laboratory, Bar Harbor, Me.) at 100 μL/mouse. Mice were systemically treated with INV-1120 (90 mg/kg/day), anti-PD1 (200 ug Q 3 days), INV-1120 (90 mg/kg/day) and anti-PD1 (200 ug Q 3 days), or vehicle (0.45% methylcellulose) in a total volume of 100 μL via orally by gavage. Treatment initiated when tumors reached approximately 249 mm^3 to 297 mm^3. Tumor size was measured by caliper (width^2×length×0.52=mm^3).

[2] = system: MC38 murine colon adenocarcinoma; assay: In vivo pharmacodynamic test on subcutaneous murine colon adenocarcinoma (MC38); parameters: species or system mice; conditions: 60 mg/kg/day, after 15 days of treatment, p<0.0001 vs control
Experimental: All animal studies were reviewed and approved by the Animal Care and Use Committee of Beth Israel Deaconess Medical Center, Boston, Mass. Animals were housed at a maximum of 5 animals per cage in a pathogen-free facility with unlimited access to sterile water and chow. Daily welfare evaluations and animal sacrifices were carried out according to the Committee guidelines. MC38 mouse colon adenocarcinoma cells (Kerafast, Boston, Mass., USA) were cultured in DMEM that was supplemented with 10% FBS, 1% GPS, 0.1 mM nonessential amino acids (MilliporeSigma), 1 mM sodium pyruvate (MilliporeSigma), 10 mM Hepes (MilliporeSigma), and […] gentamycin sulfate (MilliporeSigma). Adherent cells were trypsinized, pelleted, counted by hemocytometer, and injected into mice at 1×10^6 cells/mL in PBS.
Cells were injected subcutaneously into the mid-dorsum of 6-week-old male C57BL/6 mice (The Jackson Laboratory, Bar Harbor, Me.) at 100 μL/mouse. Mice were systemically treated with Compound 1 (INV-1120, 60 mg/kg/day), anti-PD1 (200 ug Q 3 days), INV-1120 (60 mg/kg/day) and anti-PD1 (200 ug Q 3 days), or vehicle (0.45% methylcellulose) in a total volume of 100 μL via orally by gavage. Treatment initiated on day 10 post-tumor cell injection, when tumors reached approximately […] to 224 mm^3. Tumor size was measured by caliper (width^2×length×0.52=mm^3).

B16F10 melanoma = assay: In vivo pharmacodynamic test on growth of B16F10 melanoma; parameters: species or system mice; conditions: 90 mg/kg/day, after 8 days of treatment, p<0.001 vs control
Experimental: B16F10 (1×10^6 cells) were injected subcutaneously into the mid-dorsum of 6-week-old male C57BL/6 mice (The Jackson Laboratory, Bar Harbor, Me.) at 100 μL/mouse. Mice were systemically treated with Compound 1 (INV-1120, 90 mg/kg/day), anti-PD1 (200 ug Q 3 days), INV-1120 (90 mg/kg/day) and anti-PD1 (200 ug Q 3 days), or vehicle (0.45% methylcellulose) in a total volume of 100 μL via orally by gavage. Treatment initiated on day 10 post-tumor cell injection, when tumors reached approximately 100 mm^3 to 116 mm^3. Tumor size was measured by caliper (width^2×length×0.52=mm^3).

[3] = system: colon cancer CT26 transplanted tumor; assay: In vivo pharmacodynamic test on growth of colon cancer CT26 transplanted tumor in mice
Experimental: CT26 tumor cell line was maintained in vitro as monolayer culture in RPMI-1640 Media supplemented with 10% heat inactivated fetal calf serum at 37° C. in an atmosphere of 5% CO2 in air. The tumor cells were routinely sub-cultured twice weekly by trypsin-EDTA treatment, not to exceed 4-5 passages. The cells growing in an exponential growth phase were harvested and counted for tumor inoculation.
Each mouse was inoculated subcutaneously on the right lower flank with the single cell suspension of 95% viable tumor cells (3×10^5) in 0.1 mL of serum-free RPMI 1640 Media for tumor development. Each mouse was administered with a test compound of this invention when mean tumor size reached approximately 100 mm^3. Each group consisted of 6 mice. The mice were randomized to different treatment groups as shown in the table under ‘Groups and Treatment’. The mice were lightly anesthetized before implantation. Care was taken to ensure subcutaneous delivery of cells by lifting up the fold of skin with sterilized forceps and injecting cells. Any tumors that completely or partially grew intradermally (ID) or intramuscularly (IM) were not used.
CT26 cells were maintained in RPMI 1640 medium supplemented with 10% FBS at 37° C. and 5% CO2 atmosphere. Cell detachment was obtained using standard trypsinization methods, quantification of cell numbers and viability information using the NC-200 automated cell counter. Compound 1 (INV-1121) was thoroughly suspended in 0.5% methyl cellulose (MC) by sonication at 4° C. for 15 min before oral administration (p.o.) to animals. BALB/c mice were injected subcutaneously (s.c.) with live 1×10^5 […]. Mice developed tumors of approximately 36 mm^3 in 5 days. CT26 tumor-bearing mice were randomized and mapped into 5 groups of 10 mice each: group A received vehicle (0.5% MC); group B received 0.1 mg/kg of Compound 1; group C received 1 mg/kg of Compound 1, group D received 25 mg/kg of Compound 1; and group E received 150 mg/kg of Compound 1. All treatments were give Compound 1 p.o. daily for 21 consecutive days. Tumor volumes and body weights were measured twice weekly. Study was terminated 27 days after tumor cell injection. Tumor volumes were expressed as mean: t SEM. Tumor volume differences among treated mouse groups on day 27 were analyzed by the one-way ANOVA followed by Tukey's test. P<0.05 values were considered significant.
For routine monitoring, all study animals were monitored not only tumor growth but also behavior such as mobility, food and water consumption (by cage side checking only), body weight (BW), eye/hair matting and any other abnormal effect. All mortality and/or abnormal clinical signs were recorded.
Body weights of all animals are measured twice/week throughout the study. The measurement dates will specify as study design. Body weight change, expressed in %, was calculated using the following formula:
BW change (%)=((BWDay X−BWDay 0)/BWDay 0)×100
The measurement of tumor size was conducted twice/week with a caliper and the tumor volume (mm3) will be estimated using the formula: TV=a×b 2/2, where “a” and “b” is long and short diameters of a tumor, respectively. The TVs were used for calculation of the tumor growth inhibition (TGI, an indicator of antitumor effectiveness) value using the formula: TGI=(1−T/C)×100%, where “T” and “C” is the mean relative volumes (% tumor growth) of the tumors in the treated and the control groups, respectively. The experiment was terminated when the mean tumor volume exceeded 2000 mm3 or severe body weight loss.

[4] = Example 6, studies as described in Example 5, compared with Example 5
[5] = vs animals without administration of tested compounds

**Q.** Which “balancing or coordination ability after treatment” value [1, 4] does the source give for `Cc1sc2ccn(Cc3ccc(C(F)(F)F)cc3)c2c1C(=O)NC1(c2ccc(C(=O)O)cc2)CC1.NC(CO)(CO)CO` [4-(1-{[2-Methyl-4-(4-trifluoromethyl-benzyl)-4H-thieno[3,2-b]pyrrole-3-carbonyl]-amino}-cyclopropyl)-benzoic acid tris(hydroxymethyl)aminomethane salt] here?
**A.** better balancing or coordination ability

**Q.** What about the “reduction of swelling on the arthritis feet” value [1, 4] of the same compound?
**A.** even more effective reduction of swelling

**Q.** Which results are given for `Cc1sc2ccn(Cc3ccc(C(F)(F)F)cc3)c2c1C(=O)NC1(c2ccc(C(=O)O)cc2)CC1.OCCNCCO` [INV-1120 diethanolamino salt, 4-(1-{[2-Methyl-4-(4-trifluoromethyl-benzyl)-4H-thieno[3,2-b]pyrrole-3-carbonyl]-amino}-cyclopropyl)-benzoic acid diethanolamino salt]?
**A.** temperatures of the feet ([1]; 1, 3, 10 and 40 mg/kg to the stomach daily D13-D24, FIG. 5): had effect in lowering the temperatures; swelling (volumes and thickness) of the feet ([1]; 1, 3, 10 and 40 mg/kg to the stomach daily D13-D24, FIG. 6): had effect in lowering the temperatures and swelling (both volumes and thickness); behavior patterns (e.g., balancing capability) ([1]; mouse, in vivo): improved behavior patterns; ability to withstand weight (rear feet) [1, 5]: greater weight gains and ability to withstand weight; weight gains [1, 5]: greater weight gains

**Q.** With `Cc1sc2ccn(Cc3ccc(C(F)(F)F)cc3)c2c1C(=O)NC1(c2ccc(C(=O)O)cc2)CC1` [INV-1120, 4-(1-{[2-Methyl-4-(4-trifluoromethyl-benzyl)-4H-thieno[3,2-b]pyrrole-3-carbonyl]-amino}-cyclopropyl)-benzoic acid] as the compound, how does the “inhibition of primary Lewis lung carcinoma growth vs control” value (Lewis lung carcinoma) read?
**A.** inhibited primary Lewis lung carcinoma growth

**Q.** And the “inhibition of primary tumor growth vs control” value [2]?
**A.** inhibited primary MC38 murine colon adenocarcinoma

**Q.** And the “inhibition of primary melanoma growth vs control” value (B16F10 melanoma)?
**A.** inhibited primary 16F10 melanoma growth

**Q.** How did the tumor growth inhibition ([3]; 0.1 mg/kg p.o. daily) turn out when `O=C(O)c1ccc(C2(NC(=O)c3csc4ccn(Cc5ccc(C(F)(F)F)cc5)c34)CC2)cc1` [INV-1121] was run?
**A.** some inhibition was observed, but without statistical significance

**Q.** What about the tumor growth inhibition ([3]; 1.0 mg/kg p.o. daily) of the same compound?
**A.** some inhibition was observed, but without statistical significance

**Q.** What about the anti-tumor activity ([3]; 25 mg/kg p.o. daily) of the same compound?
**A.** significant and comparable anti-tumor activity

**Q.** What about the anti-tumor activity ([3]; 150 Mg/kg p.o. daily) of the same compound?
**A.** significant and comparable anti-tumor activity

**Q.** And the “gross toxicity judged from animal body weight and overall animal behavior” value ([3]; all doses tested, 0.1-150 mg/kg p.o. daily)?
**A.** None of the doses tested showed gross toxicity

**Q.** And the “tumor growth inhibition, dose dependence” value ([3]; daily oral administration, range 0.1 mg/kg-150 mg/kg, 21 consecutive days, FIG. 1)?
**A.** inhibited the tumor growth in a dose-dependent manner

Source: US20200352906A1, “Heterobicyclic Carboxylic Acids for Treating Cancer or Inflammatory Diseases” (Shenzhen Ionova Life Science Co., Ltd., priority 2018, published 2020)
